Measured values as given in patent US20050245452A1, “Pharmaceutical use of novispirins” (Novozymes A/S, priority 2004, published 2005).

Legend:
[1] = tested on: IFN-γ, TNF-α, IL4, IL-6 and IL-10 in lung supernatants; assay: Lung cytokine response (ELISA of lung supernatants) in P. aeruginosa lung infection in rats; format: in vivo, Lewis rat; design: Lung cytokine responses (Mean + SD): IL-4 / Lung cytokine responses (Mean + SD): IL-6 / Lung cytokine responses (Mean + SD): IL-10 / Lung cytokine responses (Mean + SD): IFN-gamma / Lung cytokine responses (Mean + SD): TNF-alpha: unit not given here
Procedure: The bacterial strain, Pseudomonas aeruginosa, used in the study is CF86/57388A (1997), which is isolated from a cystic fibrosis patient and keeps stable mucoid phenotype. The rat strain used in the study is Lewis rat (7 weeks old, female) imported from Germany. Both bacterial challenge and drug administration were done intratracheally. All rats were challenged with mucoid P. aeruginosa in alginate. The concentration of the bacteria was 1×10^10 CFU/ml and each rat received 0.1 ml (1×10^9 CFU) bacteria. Control group received placebo (sterile saline, 0.1 ml/rat) twice at hour 0 and 3, and the Novispirin G10 group received the peptide (0.1 mg/ml, 0.1 ml/rat) twice at hour 0 and 3. The animals were sacrificed on day 3, 5, 7 and 10 after challenge for parameters evaluation. Supernatants of the lungs were harvested from days 3, 5 and 7 after lung infection and treatment. Interferon-gamma (IFN-γ), tumor necrosis factor-alpha (TNF-α), interleukin4 (IL4), IL-6 and IL-10 were measured by using ELISA kits (Nordic BioSite, Sweden).

[2] = tested on: P. acnes (erythromycin sensitive); assay: MIC on Propionebacterium acnes, erythromycin sensitive strain; format: cell-based
Procedure: (§1) Minimal Inhibitory Concentration (MIC) of Novispirin G10 (SEQ ID NO: 16) was evaluated against P. acnes. Two strains were tested—one of which is clinically resistant to clindamycin and erythromycin.

[3] = tested on: P. acnes (erythromycin resistant); assay: MIC on Propionebacterium acnes, erythromycin resistant strain; format: cell-based; conditions: clinically resistant to clindamycin and erythromycin
Procedure: as §1

[4] = tested on: Pseudomonas aeruginosa (ATCC 27853); assay: Pseudomonas aeruginosa wound infection in pigs (wound chambers, 4 hour time course); format: in vivo, Göttinger minipigs
Procedure: The bacterial strain, Pseudomonas aeruginosa, used in the study was ATCC 27853. The amino acid sequence of Novispirin G10 is shown in SEQ ID NO: 16.
Novispirin G10 was diluted in 0.01% acetic acid containing 0.1% BSA with a final concentration of 1 mg (substrate)/ml (solution); 100 micrograms/ml and 10 micrograms/ml. The carrier control was 0.01% acetic acid containing 0.1% BSA.
The chambers are made out of titanium, have a screw top cover (also made out of titanium) and have an inner diameter of 25 mm.
After providing permission to conduct experiments with vertebrates in compliance with German animal protection laws, Göttinger minipigs (Fa. Ellegaard, Dalmose, Denmark, male, No. 86242 and 86260, 12 months old, 35 kg weight) were chosen to implant the chambers on. The pigs were kept at least 2 weeks in the stable, fed a standard porcine diet and housed at 20° C. to 30° C. in an atmosphere of approximately 65% humidity with a light cycle of 12 hours on and 12 hours off. The pig used for this study appeared during the experiments clinically healthy—rectal temperature and body weight remained normal over the observed period.
Before wounding the skin was surgically prepared, washed with soap and desinfected with Octenisept (S&M, Norderstedt, Germany) for five minutes. Twelve wound chambers were implanted on the pigs back and flank between the base of the scapula and the iliac crest. The wounds were spaced a minimum of 5 cm apart and were created in four rows parallel to the columna vertebralis, two rows on each side of the columna vertebralis. The exact size and shape of the wounds were ensured by a special custom-made “round-scalpel”, which has a diameter of 33 mm. Epidermal, dermal subcutaneous tissue was removed, possible bleedings stanched by bipolar diathermy. The chambers were placed with an additionally secant v-incision at positions 6 respectively 12 o'clock on the musculus thoracicus longus fascia and the muscle fascia of the external ripcage muscles. The incisions were sutured with 4-0 Prolene followed by the closure of the chambers. Povidone-iodine salve (Betaisodonna-salve, Mundipharma, Austria) was smothered on the wound edges. The chambers were dressed with paraffin gauze (Jelonet, Smith & Nephew, Lohfelden, Germany) and sterile compresses (Johnson & Johnson, Gargrave, UK). Dressings were changed every second day under sedation (as described above).
Bacterial Background of each chamber was measured every second day to detect potential contamination. One contaminated chamber was detected. Eight days post operation all chambers were inoculated with bacteria.
For bacteria progeny, Pseudomonas aeruginosa (ATCC 27853) was plated on LB-Agar plates and incubated at 37° C. for 18 hours. One colony was picked, and transferred into 3 ml LB-Medium and grown over night at 37° C. at 300 rpm. The over night culture was diluted in 50 ml fresh LB-Medium and incubated for 2.5 hours at 37° C. at 200 rpm.
Bacteria were centrifuged at 4000 rpm, 5 min (Mergafuge 1.0 R, Heraeus, Hanau, Germany), and the pellet was resuspended in PBS. The amount of containing bacteria was determined by OD600 nm-measurement and calculated as follows: Colony forming Unit/ml=OD600 nm×2.5×10^8 (bacteria)
To inoculate one chamber, 5×10^8CFU were used.
The establishment of the infection was proven by the measurment of bacterial counts per chamber. All inoculated chambers were infected after two days.
At fourth day post infection, the antimicrobial effect of the testing substrate was measured in a time course of 4 hours in duration. Each chamber was cleaned before starting the time course, wound fluid was selected and blood clots were discarded. Before starting the time course each chamber was inoculated again with 1×10^8 CFU Pseudomonas aeruginosa to get an equal bacterial amount for each chamber. One ml of the prepared samples with diluted test substrate and carrier control were applied in selected chambers.
Each chamber was rinsed with the applied solution several times. […]

## Novispirin G10: novispirin antimicrobial polypeptide; amino acid sequence shown in SEQ ID NO: 16 (KNLRRIIRKGIHIIKKYG; Synthetic antimicrobial peptide)
[1]; Day 3, lung supernatant
  Lung cytokine responses (Mean + SD): IFN-gamma: 65.3 ± 28.6
  Lung cytokine responses (Mean + SD): IL-4: 34.5 ± 4.5
  Lung cytokine responses (Mean + SD): IL-6: 74.1 ± 10.0
  Lung cytokine responses (Mean + SD): IL-10: 51.7 ± 2.6
  Lung cytokine responses (Mean + SD): TNF-alpha: 159.2 ± 23.8
[1]; Day 5, lung supernatant
  Lung cytokine responses (Mean + SD): IFN-gamma: 116.6 ± 42.1
  Lung cytokine responses (Mean + SD): IL-4: 45.3 ± 5.9
  Lung cytokine responses (Mean + SD): IL-6: 65.2 ± 11.1
  Lung cytokine responses (Mean + SD): IL-10: 57.8 ± 7.6
  Lung cytokine responses (Mean + SD): TNF-alpha: 128.1 ± 19.0
[1]; Day 7, lung supernatant
  Lung cytokine responses (Mean + SD): IFN-gamma: 79.9 ± 16.2
  Lung cytokine responses (Mean + SD): IL-4: 37.3 ± 5.9
  Lung cytokine responses (Mean + SD): IL-6: 61.5 ± 11.0
  Lung cytokine responses (Mean + SD): IL-10: 51.3 ± 2.9
  Lung cytokine responses (Mean + SD): TNF-alpha: 121.8 ± 19.6
[1]; day 3, early phase of the infection
  All 5 kinds of cytokine levels compared to the control group: significantly lower
[2]
  Minimal Inhibitory Concentration (MIC): 2
[3]
  Minimal Inhibitory Concentration (MIC): 1
[4]; 1 mg applied (1 ml of 1 mg/ml), 0.05 hours
  Mean CFU per ml sample volume (chamber fluid): 667 CFU/ml
[4]; 1 mg applied (1 ml of 1 mg/ml), 1 hour
  Mean CFU per ml sample volume (chamber fluid): 1933 CFU/ml
[4]; 1 mg applied (1 ml of 1 mg/ml), 2 hours
  Mean CFU per ml sample volume (chamber fluid): 1167 CFU/ml
[4]; 1 mg applied (1 ml of 1 mg/ml), 3 hours
  Mean CFU per ml sample volume (chamber fluid): 517 CFU/ml
[4]; 1 mg applied (1 ml of 1 mg/ml), 4 hours
  Mean CFU per ml sample volume (chamber fluid): 733 CFU/ml
[4]; 10 micrograms applied (1 ml of 10 micrograms/ml), 0.05 hours
  Mean CFU per ml sample volume (chamber fluid): 413869 CFU/ml
[4]; 10 micrograms applied (1 ml of 10 micrograms/ml), 1 hour
  Mean CFU per ml sample volume (chamber fluid): 1225733 CFU/ml
[4]; 10 micrograms applied (1 ml of 10 micrograms/ml), 2 hours
  Mean CFU per ml sample volume (chamber fluid): 34811 CFU/ml
[4]; 10 micrograms applied (1 ml of 10 micrograms/ml), 3 hours
  Mean CFU per ml sample volume (chamber fluid): 9612 CFU/ml
[4]; 10 micrograms applied (1 ml of 10 micrograms/ml), 4 hours
  Mean CFU per ml sample volume (chamber fluid): 17322 CFU/ml
[4]; 100 micrograms applied (1 ml of 100 micrograms/ml), 0.05 hours
  Mean CFU per ml sample volume (chamber fluid): 7383 CFU/ml
[4]; 100 micrograms applied (1 ml of 100 micrograms/ml), 1 hour
  Mean CFU per ml sample volume (chamber fluid): 138181 CFU/ml
[4]; 100 micrograms applied (1 ml of 100 micrograms/ml), 2 hours
  Mean CFU per ml sample volume (chamber fluid): 167413 CFU/ml
[4]; 100 micrograms applied (1 ml of 100 micrograms/ml), 3 hours
  Mean CFU per ml sample volume (chamber fluid): 11661 CFU/ml
[4]; 100 micrograms applied (1 ml of 100 micrograms/ml), 4 hours
  Mean CFU per ml sample volume (chamber fluid): 2467 CFU/ml
